Experimental data published in US20080261913A1, “Compounds and pharmaceutical compositions for the treatment of liver disorders” (Idenix Pharmaceuticals, Inc., priority 2006, published 2008).
Several values for one entry are separate records, joined by “and”; a condition that tells them apart may be missing. Equal values may be shown once.

How the values were obtained:
[1] = tested on: Primary hepatocyte cultures (human); experiment: Determination of triphosphate levels in cells, human primary hepatocytes; format: in vitro ADME; conditions: general statement on the table of b531, 10 μM drug
Protocol: Freshly isolated cells from animal and human liver were obtained in suspension on ice. Following receipt, cells were pelleted by centrifugation at 500 rpm (rat) or 700 rpm (monkey and human) and resuspended at 0.8 million cells per mL of platting medium (HPM). Multi-well collagen-coated plates (12-well) were then seeded by addition of 1 mL of cell suspention (0.8 million cells/mL). The plates were gently shaken to evenly distribute the cells and placed in an incubator at 37° C. for approximately 4 to 6 hours to allow cells to attach. Once cells have attached, the platting medium was removed and replaced with hepatocyte culture medium (HCM). Cells were left overnight in an incubator at 37° C. to acclimatize to culture and the medium.
Hepatocyte incubations were conducted in a final volume of 1.0 mL HCM/well (0.8 million cells/mL). HCM from overnight incubation of cells was removed and replaced with fresh HCM, pre-warmed to 37° C., containing 10 μM test article from a stock solution in DMSO (final DMSO concentration was 0.1%). […]
Cellular extracts were prepared by transferring 0.9 mL of extract into 2 mL microfuge tubes followed by centrifugation for 5 min at 14,000 rpm. Approximately 100 μL of the supernatant was transferred to HPLC vials and triphosphate levels determined by LCMS/MS as described below. […]

[2] = In vivo studies in rat: A550 and LddATP measured in livers after IV or oral dose; conditions: male rat liver
Protocol: Distribution of A550 (NM-204) (the compound of Example 1 (Hydroxy-tBuSATE N-benzylphosphoroamidate derivative of L-ddA) in the rat liver was evaluated following a single intravenous (I.V.) or oral administration of A550 (NM-204) at a dose of 20 (oral) or 10 (I.V.) mg/Kg body weight. The dose solutions were prepared on the same day prior to dose administration.
At the specified time point (1 and 3 hours for IV animals or 1, 3 and 8 hours for oral animals), each animal was euthanized by CO2 gas followed by exsanguination via the abdominal vein. Livers were collected immediately after sacrifice, flash frozen in liquid nitrogen, placed on dry ice, and later stored at −70° C., before being analyzed.
Control rat liver samples were taken from whole frozen livers (Bioreclamation, Inc. Hicksville, N.Y.) with the aid of a tissue coring utensil (Harris Unicore, 8.0 mm, VWR). Each ˜0.1 g sample was placed in individual 2 mL poly vials with 0.940 mL of 80% MeOH/20% DIH2O and homogenates were prepared using a mechanical tissue disruptor (Tissue Master, Omni-International, Inc, Marietta Ga.). The vials received a 10 μl aliquot of a working stock solution and a 50 μl aliquot of the ISTD before vortexing for ˜30 sec. The mixtures were stored overnight at −20° C. and the next day were removed for 10 min of centrifugation in a benchtop centrifuge. Each supernatant was transferred to individual centrifugation filtration units (0.45 μm) and the resulting filtrates were transferred to HPLC vials for the LC/MS/MS analysis. The final concentrations of ddATP in the calibration standards was 1000, 500, 250, 125, 50, and 0 pmol/ml. Each calibration standard was directly injected in a 50 μL volume onto the ion-exchange column for analysis. Standard curve analysis of calibration standards from control liver extracts was conducted.
Analysis of ddATP was done by an ion-exchange chromatography method with on-line positive ionization ESI-MS/MS detection in multiple reaction monitoring (MRM) detection mode. […] This is equivalent to a range of […] per gram liver by the sample preparation employed. The HPLC MS MS conditions described in Example 5 were utilized.

[3] = tested on: Primary hepatocytes (Rat); experiment: In vitro phosphorylation in hepatocytes (LddA-TP formation), rat; format: in vitro ADME
Protocol: (§1) Measurements of the concentration of 2′-3′-dideoxyadenosine-5′-triphosphate (ddATP) (the triphosphate nucleotide of 2′-3′-dideoxyadenosine (ddA) are performed by liquid chromatography tandem mass spectrometry (LC/MS/MS), e.g., of methanolic extracts of hepatocytes.
(§2) The concentration of ddATP is measured by comparison to a standard curve. Working stock solutions of TP-ddA are prepared from a […] stock solution in de-ionized water of ddATP (tetrasodium salt of >91% purity) purchased from Sigma Chemical Co as follows:
(§3) HPLC is conducted on Phenomenex Luna Amino 3 μm 100 A, 30×2 mm column, with a mobile phase: A: 70% 10 mM NH4OAc 30% ACN pH 6.0; and B: 70% 1 mM NH4OAc 30% ACN pH 10.5 as follows:
(§4) Primary hepatocytes (Rat, Cynomolgus Monkey or human) were seeded at 0.8×10^6 in a collagen-coated 12-well plate and allowed to attach 4-6 hours after which time the seeding medium was replaced with serum-free culture medium and cells allowed to acclimatize to the new medium overnight. On the next day, cells were exposed for 1, 4, 8 and 24 hours to test article A550 (NM204) at 10 and 50 μM prepared in fresh culture medium from stock solution in DMSO (final DMSO concentration was 0.1%). At each time point, an aliquot (500 μl) was collected and immediately added to 500 μl of acetonitrile and stored at −20° C. until analysis. The remaining exposure medium was removed and the cell monolayer (stuck to dish) washed 2 times with ice-cold PBS. Any remaining PBS was carefully removed by aspiration and cells were harvested by scraping in 1 mL 70% ice-cold methanol. Cell samples were placed overnight at −20° C. and cellular debris removed by centrifugation on the next day. The supernatants were removed and filtered prior to analysis by LC/MS. A standard curve was prepared by using untreated cells processed similarly except that prior to harvesting in 70% methanol, 10 μl of LddATP standard solutions prepared in methanol were added to the washed monolayers. These control samples were then processed and analyzed as described for test samples.

[4] = tested on: Primary hepatocytes (human); experiment: In vitro phosphorylation in hepatocytes (LddA-TP formation), human; format: in vitro ADME
Protocol: as §1, §2, §3, §4

[5] = tested on: Primary hepatocytes (Cynomolgus Monkey); experiment: In vitro phosphorylation in hepatocytes (LddA-TP formation), monkey; format: in vitro ADME
Protocol: as §1, §2, §3, §4

[6] = IV dose 10 mg/kg, 1 hr, individual animals, 10 mg/kg
[7] = IV dose 10 mg/kg, 3 hrs, individual animals, 10 mg/kg
[8] = Oral dose 20 mg/kg, 1 hr, individual animals, 20 mg/kg
[9] = Oral dose 20 mg/kg, 3 hrs, Mean
[10] = Oral dose 20 mg/kg, 3 hrs, individual animals, 20 mg/kg
[11] = Oral dose 20 mg/kg, 8 hrs, Mean
[12] = Oral dose 20 mg/kg, 8 hrs, individual animals, 20 mg/kg

CC(C)(CO)C(=O)SCCOP(=O)(NCc1ccccc1)OC[C@H]1O[C@@H](n2ccc(N)nc2=O)[C@](C)(O)[C@@H]1O (mixture of isomers) [Example B102, Hydroxy-tBuSATE N-Benzylphosphoroamidate Derivative of 2′-C-methylcytidine]
levels of intracellular triphosphate as compared to those for NM107 [1]: much higher

Hydroxy-tBuSATE N-benzylphosphoroamidate derivative of L-ddA [Example A550]
Concentration Compound (Ex 1) ([2]; IV dose 10 mg/kg, 1 hr, Mean): 80.0 pmol/g liver
Concentration. ddA-TP ([2]; IV dose 10 mg/kg, 1 hr, Mean): 1770 pmol/g liver
Concentration. ddA-TP ([2]; IV dose 10 mg/kg, 1 hr, Mean, via hepatocellularity number): 15.5 pmol/10^6 cells
Concentration Compound (Ex 1) [2, 6]: 85.1 pmol/g liver and 65.8 pmol/g liver and 89.1 pmol/g liver
Concentration. ddA-TP [2, 6]: 1355 pmol/g liver and 2025 pmol/g liver and 1930 pmol/g liver
Concentration. ddA-TP ([2]; IV dose 10 mg/kg, 1 hr, individual animals, via hepatocellularity number, 10 mg/kg): 11.9 pmol/10^6 cells and 17.8 pmol/10^6 cells and 16.9 pmol/10^6 cells
Concentration Compound (Ex 1) ([2]; IV dose 10 mg/kg, 3 hrs, Mean): 27.9 pmol/g liver
Concentration. ddA-TP ([2]; IV dose 10 mg/kg, 3 hrs, Mean): 2092 pmol/g liver
Concentration. ddA-TP ([2]; IV dose 10 mg/kg, 3 hrs, Mean, via hepatocellularity number): 18.3 pmol/10^6 cells
Concentration Compound (Ex 1) [2, 7]: 28.3 pmol/g liver and 26.0 pmol/g liver and 29.3 pmol/g liver
Concentration. ddA-TP [2, 7]: 1345 pmol/g liver and 1940 pmol/g liver and 2990 pmol/g liver
Concentration. ddA-TP ([2]; IV dose 10 mg/kg, 3 hrs, individual animals, via hepatocellularity number, 10 mg/kg): 11.8 pmol/10^6 cells and 17.0 pmol/10^6 cells and 26.2 pmol/10^6 cells
Concentration Compound (Ex 1) ([2]; Oral dose 20 mg/kg, 1 hr, Mean): 251 pmol/g liver
Concentration. ddA-TP ([2]; Oral dose 20 mg/kg, 1 hr, Mean): 395 pmol/g liver
Concentration. ddA-TP ([2]; Oral dose 20 mg/kg, 1 hr, Mean, via hepatocellularity number): 3.5 pmol/10^6 cells
Concentration Compound (Ex 1) [2, 8]: 411 pmol/g liver and 272 pmol/g liver and 70.2 pmol/g liver
Concentration. ddA-TP [2, 8]: 210 pmol/g liver and 575 pmol/g liver and 400 pmol/g liver
Concentration. ddA-TP ([2]; Oral dose 20 mg/kg, 1 hr, individual animals, via hepatocellularity number, 20 mg/kg): 1.8 pmol/10^6 cells and 5.0 pmol/10^6 cells and 3.5 pmol/10^6 cells
Concentration Compound (Ex 1) [2, 9]: 204 pmol/g liver
Concentration. ddA-TP [2, 9]: 312 pmol/g liver
Concentration. ddA-TP ([2]; Oral dose 20 mg/kg, 3 hrs, Mean, via hepatocellularity number): 2.7 pmol/10^6 cells
Concentration Compound (Ex 1) [2, 10]: 360 pmol/g liver and 92.1 pmol/g liver and 161 pmol/g liver
Concentration. ddA-TP [2, 10]: 200 pmol/g liver and 330 pmol/g liver and 405 pmol/g liver
Concentration. ddA-TP ([2]; Oral dose 20 mg/kg, 3 hrs, individual animals, via hepatocellularity number, 20 mg/kg): 1.8 pmol/10^6 cells and 2.9 pmol/10^6 cells and 3.6 pmol/10^6 cells
Concentration Compound (Ex 1) [2, 11]: 20.1 pmol/g liver
Concentration. ddA-TP [2, 11]: 382 pmol/g liver
Concentration. ddA-TP ([2]; Oral dose 20 mg/kg, 8 hrs, Mean, via hepatocellularity number): 3.3 pmol/10^6 cells
Concentration Compound (Ex 1) [2, 12]: 16.4 pmol/g liver and 28 pmol/g liver and 16.2 pmol/g liver
Concentration. ddA-TP [2, 12]: 280 pmol/g liver and 805 pmol/g liver and 275 pmol/g liver
Concentration. ddA-TP ([2]; Oral dose 20 mg/kg, 8 hrs, individual animals, via hepatocellularity number, 20 mg/kg): 2.5 pmol/10^6 cells and 5.2 pmol/10^6 cells and 2.4 pmol/10^6 cells
LddA TP Levels ([3]; 10 μM, 1 hour): 159.5 pmol/million cells
LddA TP Levels ([3]; 10 μM, 4 hours): 388.0 pmol/million cells
LddA TP Levels ([3]; 10 μM, 8 hours): 468.5 pmol/million cells
LddA TP Levels ([3]; 10 μM, 24 hours): 422.0 pmol/million cells
LddA TP Levels ([3]; 50 μM, 1 hour): 393.0 pmol/million cells
LddA TP Levels ([3]; 50 μM, 4 hours): 1212.0 pmol/million cells
LddA TP Levels ([3]; 50 μM, 8 hours): 1590.0 pmol/million cells
LddA TP Levels ([3]; 50 μM, 24 hours): 1505.0 pmol/million cells
LddA TP Levels ([4]; 10 μM, 1 hour): 161.5 pmol/million cells
LddA TP Levels ([4]; 10 μM, 4 hours): 312.5 pmol/million cells
LddA TP Levels ([4]; 10 μM, 8 hours): 352.5 pmol/million cells
LddA TP Levels ([4]; 10 μM, 24 hours): 366.0 pmol/million cells
LddA TP Levels ([4]; 50 μM, 1 hour): 682.5 pmol/million cells
LddA TP Levels ([4]; 50 μM, 4 hours): 1480.0 pmol/million cells
LddA TP Levels ([4]; 50 μM, 8 hours): 1930.0 pmol/million cells
LddA TP Levels ([4]; 50 μM, 24 hours): 2062.5 pmol/million cells
LddA TP Levels ([5]; 10 μM, 1 hour): 287.5 pmol/million cells
LddA TP Levels ([5]; 10 μM, 4 hours): 978.0 pmol/million cells
LddA TP Levels ([5]; 10 μM, 8 hours): 1230.0 pmol/million cells
LddA TP Levels ([5]; 10 μM, 24 hours): 344.0 pmol/million cells
LddA TP Levels ([5]; 50 μM, 1 hour): 2085.0 pmol/million cells
LddA TP Levels ([5]; 50 μM, 4 hours): 5690.0 pmol/million cells
LddA TP Levels ([5]; 50 μM, 8 hours): 6030.0 pmol/million cells
LddA TP Levels ([5]; 50 μM, 24 hours): 3030.0 pmol/million cells
